The source of these data is US6207686A, “Endothelin antagonists” (Fujisawa Pharmaceutical Co., Ltd., priority 1994, dated 2001).

The target in one assay is T1, ETB (Sus scrofa, UniProt P35463).
T1 construct: Membranes as endothelin receptors were isolated from inner medulla of porcine kidney; from tissue; host or cells: inner medulla of porcine kidney, crude membranes
T1 sequence (P35463 27-443): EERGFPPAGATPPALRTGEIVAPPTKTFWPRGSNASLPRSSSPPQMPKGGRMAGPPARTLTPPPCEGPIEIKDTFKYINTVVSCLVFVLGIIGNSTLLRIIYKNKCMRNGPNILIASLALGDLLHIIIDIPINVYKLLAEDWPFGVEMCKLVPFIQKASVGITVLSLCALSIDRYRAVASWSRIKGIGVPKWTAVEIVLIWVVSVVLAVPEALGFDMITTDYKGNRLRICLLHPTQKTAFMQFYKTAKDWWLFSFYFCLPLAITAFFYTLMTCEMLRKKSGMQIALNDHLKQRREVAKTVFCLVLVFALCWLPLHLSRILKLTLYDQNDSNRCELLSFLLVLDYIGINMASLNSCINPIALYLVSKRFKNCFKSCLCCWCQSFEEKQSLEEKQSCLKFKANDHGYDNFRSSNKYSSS
The assay is described as follows: ETB Antagonistic Activity: radioligand binding assay, effect on specific binding of [^125 I]ET-1 in porcine kidney membrane. The note with it: inner medulla of porcine kidney membrane; [^125 I]ET-1 16 pM. How it is done: (ETB Antagonistic Activity)
(§1) Radioligand binding assay:
(§2) (a) Crude receptor membrane preparation:
Membranes as endothelin receptors were isolated from inner medulla of porcine kidney. The inner medulla of porcine kidney was placed in ice-cold buffer (0.25M sucrose, 5 mM Tris-HCl, 0.1 mM EDTA, pH 7.5). The inner medulla was homogenized in five volumes (w/v) of ice-cold buffer using a Brinkman Polytron PT-10 at a setting of 16,000 rpm for three 10-sec periods. The homogenate was centrifuged at 10,000× g for 20 minutes at 4° C. The pellet was discarded and the supernatant was centrifuged at 100,000× g for 60 minutes at 4° C. […]
To determine [^125 I]ET-1 binding to kidney, membrane suspensions prepared from kidney (10 μg of protein) were incubated by constant shaking for 60 minutes at 23° C. with [^125 I]ET-1 (range, 4-900 pM) in a total volume of 250 μl of buffer 1 that contained 0.1 mg/ml of bovine serum albumin. […] The filter disks were washed three times with 0.1 ml of ice-cold 50 mM Tris-HCl buffer (pH 7.5), and the radioactivity was counted in a gamma counter (Hewlett-Packard) with an efficiency of 71%. […] The Kd was determined by Scatchard analysis. […]

The target in a further assay is T2, ETA (Sus scrofa, UniProt Q29010).
T2 construct: The aorta membrane fractions were stored at -80° C. until use; tissue Pel-Freez Biologicals (U.S.A.); host or cells: porcine aorta, crude membrane fraction
T2 sequence (Q29010 21-427): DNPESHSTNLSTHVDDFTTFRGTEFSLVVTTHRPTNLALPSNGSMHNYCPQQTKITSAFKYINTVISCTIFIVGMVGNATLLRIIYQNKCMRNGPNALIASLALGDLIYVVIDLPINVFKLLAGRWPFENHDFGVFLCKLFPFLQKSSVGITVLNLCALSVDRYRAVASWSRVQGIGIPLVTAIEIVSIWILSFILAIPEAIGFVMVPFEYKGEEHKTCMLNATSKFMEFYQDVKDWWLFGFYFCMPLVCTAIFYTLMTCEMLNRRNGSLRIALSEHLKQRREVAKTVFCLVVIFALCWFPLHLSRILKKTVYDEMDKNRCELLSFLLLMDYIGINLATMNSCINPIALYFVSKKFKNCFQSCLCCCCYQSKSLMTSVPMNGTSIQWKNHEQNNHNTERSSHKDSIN
Kind of assay: ETA Antagonistic Activity: radioligand binding assay, effect on specific binding of ^125 I-endothelin-1 in porcine aorta membrane. The note with it: ^125 I-Endothelin-1 1.67×10^-11 M, room temperature, 60 minutes. The method, then: (ETA Antagonistic Activity)
as §1, §2
Porcine aorta was purchased from Pel-Freez Biologicals (U.S.A.) and stored at -80° C. until use.
Porcine aorta (50 g) was thawed and dissected free from fatty tissue, minced with scissors and then homogenized with a polytron (Brinkmann PT-20, maximal speed for 3×10 sec) in 100 ml buffer (0.25M sucrose, 10 mM Tris-HCl, 0.1 mM EDTA).
The homogenate was centrifuged at 10,000 g for 20 minutes at 4° C.
The supernatant, containing the plasma membrane fraction, was centrifuged at 100,000 g for 60 minutes at 4° C., and then resultant pellets were referred to as crude membrane fractions.
The pellets were resuspended in 25 ml of binding assay buffer (50 mM Tris-HCl, 100 mM NaCl, 5 mM MgCl2, 1.5 μg/ml phenylmethylsulfonyl fluoride (PMSF), 120 μg/ml bacitracin, 12 μg/ml leupepcin, 6 μg/ml chymostain, 0.1% bovine serum albumin (BSA), pH 7.5).
The aorta membrane fractions were stored at -80° C. until use.
(b) ^125 I-endothelin-1 binding assay: […]
After incubation, the incubation mixture were filtered through Glass-fiber GF/C filter (pretreated with 0.1% polyethylene imine for 3 hours prior to use) using cell harvester (Brandel M-24S). […] The filters were counted in a gamma counter (Packard Auto Gamma Model 5650).

The structures appear in SMILES notation. A value given as a limit tells only on which side of the number the result lay.

As a reminder, the IC50 is the concentration needed to halve the response being measured. Read a high IC50 as a need for much substance.

Regarding `CCC[C@@H](O)[C@H](C(=O)N[C@@H](Cc1c[nH]c2ccccc12)C(=O)O)c1ccc2c(c1)OCO2` (mixture of isomers) [Compound B, N-[(2RS,3RS)-2-(3,4-Methylenedioxyphenyl)-3-hydroxyhexanoyl]-L-tryptophan], the half-inhibitory concentration (IC50) on ETB was below 10 nM; at ETA, 40 nM.

The molecule `CCC[C@@H](O)[C@H](C(=O)O)c1ccc2c(c1)OCO2` (racemic) [Compound C, (2RS,3RS)-2-(3,4-Methylenedioxyphenyl)-3-hydroxyhexanoic acid] displayed an IC50 at ETA of 530 nM.

In the case of `O=C(O)[C@H](Cc1c[nH]c2ccccc12)NC(=O)[C@H](c1ccccc1O)[C@H](O)C1CCCCC1` [Compound A, N-[(2R,3R)-3-Cyclohexyl-2-(2-hydroxyphenyl)-3-hydroxypropionyl]-L-tryptophan], on ETB, the half-maximal inhibitory concentration (IC50) was found to be 75 nM.
